Measured values from US10889611B2, “Sialyltransferase inhibitors and uses thereof” (Academia Sinica, priority 2015, dated 2021).
Marks after values point to notes of the source that are not given here.

Experiments:
[1] = target: T1, α2,3(N)-sialyltransferase ST3GALIII (Rattus norvegicus, UniProt Q02734); assay: Sialyltransferase activity assay, ST3GALIII; format: biochemical; details: calculated based on the concentration, of ST inhibitor used toward α2,3-O-ST3GALI, listed as 3 (FCW34)
T1 construct: purchased Calbiochem
T1 sequence (Q02734 1-374): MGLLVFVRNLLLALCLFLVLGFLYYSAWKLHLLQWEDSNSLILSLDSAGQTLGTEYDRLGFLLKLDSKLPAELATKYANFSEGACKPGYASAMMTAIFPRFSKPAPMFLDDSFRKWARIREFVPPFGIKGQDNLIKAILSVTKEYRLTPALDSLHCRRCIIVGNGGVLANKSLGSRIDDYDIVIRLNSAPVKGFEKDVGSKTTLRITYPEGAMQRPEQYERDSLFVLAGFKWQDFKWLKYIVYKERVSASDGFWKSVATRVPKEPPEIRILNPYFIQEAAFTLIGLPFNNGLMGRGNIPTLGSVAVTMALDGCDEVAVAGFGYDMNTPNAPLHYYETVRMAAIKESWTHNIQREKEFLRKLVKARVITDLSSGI
Experimental: The enzymes analyzed in the present study included rat ST3Gal(I), rat ST3Gal(III), and human ST6Gal(I). Rat ST3Gal(I) and rat ST3Gal(Ill), were purchased from Calbiochem®, while human ST6Gal(I) was purchased from RnDSystems.com.
(§1) Sialyltransferase inhibition assay […] was performed as follows: Sialyltransferase activity was determined by measuring the level of the end product of sialylated saccharides with reverse-phase HPLC. The assay mixtures contained the following components: 200 mM MES buffer; 100 mM NaCl; 0.5 mM EDTA; 0.01% Triton X-100; 1.4 mU ST3GALI; 2.5 mM T-antigen; 1 mM CMP-Neu5Ac and different concentration of Sialyltransferase inhibitors to a total volume of 50 μl. The assay mixture was incubated at 37° C. for 15 mins and then quenched by heating up to 101′C for 10 mins. The sialylated product was resolved by reversed-phase HPLC. Kinetic data were obtained by fitting the initial rate data to the nonlinear regression equation.
as §1, with “mU ST6GALI; 25 μM Galβ1-4GlcNAc;” for “mU ST3GALI; 2.5 mM T-antigen;”, “to 101° C.” for “to 101′C”, “product is” for “product was”, “resolved with” for “resolved by”
Effects of the present compounds on the activity of sialyltransferase, including α2,3(N)-sialyltransferase ST3GALIII, α2,6(N)-sialyltransferases ST6GALI, and α2,3(O)-sialyltransferase ST3GALI, were determined in accordance with procedures described in the “Materials and Methods” section, and results are summarized in Table 1.

[2] = target: T2, α2,3(O)-sialyltransferase ST3GALI (Rattus norvegicus, UniProt Q6H8N0); assay: Sialyltransferase inhibition assay, ST3GALI (reverse-phase HPLC); format: biochemical; details: read-out: ST3GALI inhibition percentage
T2 construct: purchased Calbiochem
T2 sequence (Q6H8N0 1-340): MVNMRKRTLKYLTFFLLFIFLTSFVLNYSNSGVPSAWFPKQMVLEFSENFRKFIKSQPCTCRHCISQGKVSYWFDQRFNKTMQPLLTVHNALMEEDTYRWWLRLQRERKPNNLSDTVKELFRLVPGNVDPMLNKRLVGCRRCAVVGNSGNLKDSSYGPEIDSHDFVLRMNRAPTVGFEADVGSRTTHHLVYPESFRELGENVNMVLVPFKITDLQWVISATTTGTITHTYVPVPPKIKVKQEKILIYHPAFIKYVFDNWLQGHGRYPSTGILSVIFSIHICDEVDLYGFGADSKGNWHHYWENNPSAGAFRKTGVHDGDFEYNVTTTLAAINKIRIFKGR
How it was run: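 Rat ST3Gal(I) (1.4 mU) was incubated with 2.5 mM T-antigen and 1 mM CMP-Neu5Ac in 200 mM MES, 100 mM NaCl, 0.5 mM EDTA and 0.01% Triton X-100 with varied inhibitor, 15 min at 37 °C, then heat-quenched. Sialylated product was quantified by reverse-phase HPLC, and kinetic values came from nonlinear regression of initial rates.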

[3] = target: T1, α2,3(N)-sialyltransferase ST3GALIII; assay: Sialyltransferase activity assay, ST3GALIII; format: biochemical; details: α2,3-N-link; read-out: IC50 (μM) ST3GALIII
[4] = test system: MDA-MB-231 breast cancer; assay: Nude mice model of human MDA-MB-231 breast cancer; format: in vivo
Experimental: BALB/c mice (4-5 weeks old) were subcutaneously injected with 1×10^6 MDA-MB-231 cells to the mammary fat pad on day 0. Tumors were allowed to grow in the mice until the size of the tumor reached 100 mm^3, and then the animals were randomly assigned to 3 groups (n=6-8 per group): tumor (vehicle) control, 10 mg/kg the present compound (e.g., FCW34 or FCW66) treatment group. The present compound was intraperitoneally (i.p.) injected to test animals every three days. The growth and metastasis of the tumors were observed by IVIS imaging system, and the metastasized tumor tissues were collected on day 60, and measured for the volume (V) using calipers and calculated by the formula V=(L×W^2)/2, where L is the length and W is the width of tumor.
The effects of the sialyltransferase inhibitor in tumor growth and metastasis were investigated in a nude mice model of human MDA-MB-231 breast cancer established in accordance with procedures set forth in the “Materials and Methods” section. The MDA-MB-231/Luc cells (5×10^6 cells) were orthotopically injected into the mammary fat pad of nude mice. Then the mice were given FCW34 and vehicle, respectively, on day 20, and the tumor volume were evaluated by bioluminescence every 3 days using IVIS image analysis.

[5] = test system: PANC-1 cells; assay: In vitro transwell invasion analysis, PANC-1 cells; format: cell-based, human; details: PANC-1 cells grown in fructose-containing medium, FIG. 4
Experimental: Migration assays were done using a transwell, in which a polycarbonate filter pre-coated with Matrigel (8-μm pores, Millicell; Millipore, Billerica, Mass.) was inserted therein. Cells were serum-starved for 24 h and then seeded (5×10^5 cells per upper chamber) and treated with or without the present compound(s) (concentrations as indicated), and the assays were run for 6 h. Cells that had migrated to the underside of the inserted filter were stained with hematoxylin solution. The cells in the upper side of the inserted membrane were rubbed with a cotton swab. The migrated cells on the underside were pictured in a 200× magnification field and quantified.
In this example, the ability of the FCW34 in suppressing the migration and/or invasion of pancreatic cancer cells was investigated using in vitro transwell analysis and in vivo mice model bearing pancreatic cancer.

C[C@H](CCC(=O)OCCOCCOCCN=[N+]=[N-])C1CC[C@H]2[C@@H]3CC[C@@H]4C[C@H](OC(=O)[C@H](CC(=O)O)Nc5ccc([N+](=O)[O-])c6nonc56)CC[C@]4(C)[C@H]3CC[C@]12C (stereo partly drawn) [Compound 3, (3S)-4-(((3R,5R,8R,9S,10S,13R,14S)-17-((R)-5-(2-(2-(2-azidoethoxy)ethoxy)ethoxy)-5-oxopentan-2-yl)-10,13-dimethylhexadecahydro-1H-cyclopenta[a]phenanthren-3-yl)oxy)-3-((7-nitrobenzo[c][1,2,5]oxadiazol-4-yl)amino)-4-oxobutanoic acid]
selectivity ratio ST3GALI/ST3GALIII ([1]; 500 μM): >287^d | selectivity ratio ST3GALI/ST3GALIII ([1]; 1 mM): (<575)^e | inhibition at 500 µM ([2]; measured at 500 μM): 0% | inhibition at 1000 µM ([2]; measured at 1 mM): 60% | IC50 [3]: 1.74 ± 0.09 µM | growth of the cancer cells (tumors harvested on day 60) ([4]; 10 mg/Kg, FIG. 2B): suppresses the growth | level of bioluminescence (tumor growth, IVIS) ([4]; 10 mg/Kg/mouse/3 days, FIG. 2A): remained at a relatively low level | toxic effects (biochemistry tests of blood and body weight assessment) ([4]; treated mice, data not shown): limited toxic effects | invasion ability [5]: significantly inhibited
